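Assay format: 96-well plates, 48-hour exposure. The concentration for 50% growth inhibition is given as GI50.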 The source made the active and inactive calls. Cut-off read from the data, not from the text of the source: active = GI50 up to about 1.1 µM and inactive = higher. Bounds are passed on as bounds.

Test systems include RXF 393; SN12C; SF-295; OVCAR-8; SK-MEL-2; PC-3; MOLT-4; SK-OV-3; A498; IGROV-1; KM12; HCT-15; A549; HT-29; NCI-H522; SR; SK-MEL-28; MCF7; ACHN; HOP-62.
Holding throughout (assay): NCI anticancer screen, dose series, 48 h

With `NC(C(=O)O)c1cc(O)no1` (stereo not given), the GI50 in the assay with RXF 393, with SN12C, in the assay on SF-295, in the assay with OVCAR-8, with SK-MEL-2 and in the assay on PC-3 was > 100 µM (inactive) in each case. For the same molecule, the GI50 was > 100 µM (inactive) in the assay with MOLT-4; > 100 µM (inactive) in the assay on SK-OV-3; > 100 µM (inactive) in the assay with A498; > 100 µM (inactive) with IGROV-1; > 100 µM (inactive) with KM12; > 100 µM in the assay with HCT-15. Moreover, the GI50 with A549, in the assay on HT-29, in the assay with NCI-H522, in the assay with SR, in the assay on SK-MEL-28 and in the assay with MCF7 was > 100 µM (inactive) in each case. Also, the GI50 in the assay with ACHN and with HOP-62 was > 100 µM (inactive) each time.
`O=C1NC(Nc2ccccc2Cl)=N/C1=C\c1c(Cl)cccc1Cl`: the GI50 in the assay on RXF 393 was 23.4 µM (inactive); in the assay with SN12C, 28.2 µM (inactive); with SF-295, 26.5 µM (inactive); in the assay on OVCAR-8, 31.6 µM (inactive); in the assay with SK-MEL-2 it was 28.8 µM (inactive); in the assay on PC-3 it was 25.1 µM (inactive). The GI50 in the assay with MOLT-4 was 27 µM (inactive); with SK-OV-3, 59.8 µM (inactive); in the assay on A498, 34.5 µM (inactive); in the assay on IGROV-1 it was 25.8 µM (inactive); in the assay with KM12 it was 23.7 µM (inactive); in the assay with HCT-15, 25.5 µM. The GI50 was 30.4 µM (inactive) in the assay on A549; 31.6 µM (inactive) with HT-29; 18.7 µM (inactive) with NCI-H522; 5.52 µM (inactive) with SR; 51.8 µM (inactive) in the assay on SK-MEL-28; 28.7 µM (inactive) with MCF7. For the same molecule, the figures for the GI50 in the assay on ACHN and in the assay with HOP-62 were 50.5 µM (inactive) and 39.7 µM (inactive), respectively.
As to `OC1(c2ccccc2)C2CC=CC2C1(c1ccccc1)c1ccccc1` (stereo not given), the GI50 with RXF 393 is 16.7 µM (inactive); in the assay on SN12C it was 30.1 µM (inactive); with SF-295 it was 34 µM (inactive); with OVCAR-8 it was 40.2 µM (inactive); in the assay with SK-MEL-2, 12 µM (inactive); in the assay with PC-3 it was 42.6 µM (inactive). Moreover, the GI50 in the assay on MOLT-4 is 16.1 µM (inactive); with SK-OV-3, 38.9 µM (inactive); with A498, 15.8 µM (inactive); with IGROV-1, 20.1 µM (inactive); with KM12, 20.6 µM (inactive); in the assay with HCT-15, 28.6 µM. The GI50 in the assay with A549 was 25.2 µM (inactive); in the assay on HT-29, 18.4 µM (inactive); in the assay with NCI-H522 it was 13.5 µM (inactive); with SR, 19.2 µM (inactive); in the assay with SK-MEL-28, 40.1 µM (inactive); in the assay with MCF7, 26.4 µM (inactive). The figures for the GI50 in the assay on ACHN and with HOP-62 were 43.5 µM (inactive) and 70.3 µM (inactive), respectively.
Take `CCN(CC)CCN(C)CCc1ccc(Br)cc1`: the GI50 in the assay on RXF 393 was 38.5 µM (inactive); with SN12C, > 100 µM (inactive); in the assay on SF-295 it was 51.5 µM (inactive); with OVCAR-8 it was > 100 µM (inactive); with SK-MEL-2 it was > 100 µM (inactive); in the assay on PC-3 it was 54 µM (inactive). The GI50 in the assay with MOLT-4 was 53.6 µM (inactive); in the assay with SK-OV-3, > 100 µM (inactive); with A498, 13.8 µM (inactive); in the assay on IGROV-1, > 100 µM (inactive); in the assay on KM12 it was 51.2 µM (inactive); in the assay on HCT-15, 61.1 µM. Besides, the GI50 in the assay with A549 was > 100 µM (inactive); in the assay with HT-29 it was 24.9 µM (inactive); in the assay on NCI-H522 it was 69.3 µM (inactive); in the assay on SR, > 100 µM (inactive); with SK-MEL-28 it was 41.7 µM (inactive); in the assay on MCF7, 48.8 µM (inactive). Also, the GI50 with ACHN was > 100 µM (inactive); in the assay on HOP-62, 29.7 µM (inactive).
Regarding `CC(C)NC(=O)CN1CCN(C2=CC(=O)c3c(O)ccc(O)c3C2=O)CC1`, the GI50 in the assay on RXF 393 is 17.2 µM (inactive); in the assay with SN12C, 14.5 µM (inactive); in the assay on SF-295, 15.6 µM (inactive); in the assay with OVCAR-8 it was 9.04 µM (inactive); in the assay on SK-MEL-2, 16.6 µM (inactive); in the assay with PC-3, 17.5 µM (inactive). Moreover, the GI50 with MOLT-4 is 17 µM (inactive); in the assay on SK-OV-3, 26.1 µM (inactive); in the assay on A498, 24.2 µM (inactive); in the assay with IGROV-1, 14.8 µM (inactive); in the assay on KM12, 16.6 µM (inactive); with HCT-15 it was 8.75 µM. The GI50 in the assay with A549 is 16.4 µM (inactive); with HT-29, 3.62 µM (inactive); in the assay on NCI-H522, 18.2 µM (inactive); with SR, 1.57 µM (inactive); in the assay on SK-MEL-28, 17.1 µM (inactive); with MCF7 it was 2.71 µM (inactive). Also, the GI50 in the assay with ACHN is 21.2 µM (inactive); with HOP-62 it was 18.2 µM (inactive).
As to `CCN(CC)C(=S)N/N=C1\C(=O)Nc2ccccc21`, the GI50 is 1.3 µM (inactive) with RXF 393; 1.46 µM (inactive) in the assay with SN12C; 0.45 µM (active) with SF-295; 0.813 µM (active) in the assay with OVCAR-8; 2.65 µM (inactive) in the assay on SK-MEL-2; 0.334 µM (active) with PC-3. Moreover, the GI50 is 0.653 µM (active) in the assay on MOLT-4; 3.05 µM (inactive) in the assay with SK-OV-3; 1.25 µM (inactive) in the assay on A498; 0.239 µM (active) in the assay with IGROV-1; 0.451 µM (active) in the assay with KM12; 0.413 µM in the assay on HCT-15. Moreover, the GI50 in the assay on A549 is 0.638 µM (active); in the assay with HT-29, 1.18 µM (inactive); in the assay on NCI-H522, 3.03 µM (inactive); with SR it was 0.968 µM (active); with SK-MEL-28, > 100 µM (inactive); with MCF7, 0.397 µM (active). The GI50 with ACHN was 0.42 µM (active); with HOP-62, 0.431 µM (active).
For `C[N+]12CCCCC1C(CN1C(=O)c3ccccc3C1=O)CCC2` (stereo not given), the GI50 in the assay on RXF 393, in the assay with SN12C, in the assay with SF-295, in the assay with OVCAR-8, in the assay on SK-MEL-2 and with PC-3 was > 100 µM (inactive) each time. For the same molecule, the GI50 in the assay with MOLT-4 is > 100 µM (inactive); with SK-OV-3, > 100 µM (inactive); in the assay on A498, > 100 µM (inactive); with IGROV-1, > 100 µM (inactive); in the assay on KM12, > 100 µM (inactive); in the assay with HCT-15, > 100 µM. For the same molecule, the GI50 in the assay with A549 is > 100 µM (inactive); in the assay on HT-29, > 100 µM (inactive); in the assay with NCI-H522, > 100 µM (inactive); in the assay with SR, 56 µM (inactive); with SK-MEL-28, > 100 µM (inactive); in the assay on MCF7, > 100 µM (inactive). For the same molecule, the GI50 in the assay with ACHN and in the assay with HOP-62 was > 100 µM (inactive) each time.
As for `Nc1nc(N)c2cc(-c3cc4ccccc4[nH]3)ccc2n1`, the GI50 in the assay with RXF 393 is 24.8 µM (inactive); in the assay on SN12C, 33 µM (inactive); in the assay with SF-295, 27.6 µM (inactive); with OVCAR-8 it was 32.5 µM (inactive); with SK-MEL-2, 18.2 µM (inactive); with PC-3, 26.2 µM (inactive). The GI50 is 26.5 µM (inactive) in the assay with MOLT-4; 45.3 µM (inactive) in the assay with SK-OV-3; 18.1 µM (inactive) in the assay on A498; 15.8 µM (inactive) in the assay with IGROV-1; 17.8 µM (inactive) with KM12; 22.1 µM in the assay with HCT-15. Also, the GI50 is 32.2 µM (inactive) in the assay on A549; 15.5 µM (inactive) in the assay on HT-29; 17.5 µM (inactive) with NCI-H522; 30.2 µM (inactive) with SR; 22.2 µM (inactive) in the assay on SK-MEL-28; 18.1 µM (inactive) in the assay with MCF7. Also, the GI50 with ACHN is 18.9 µM (inactive); in the assay with HOP-62, 30.8 µM (inactive).
With `COC(=O)C1=NN2c3ccccc3C(=O)OCCC2C1` (stereo not given), the GI50 in the assay on RXF 393, in the assay on SN12C, in the assay on SF-295, in the assay with OVCAR-8, with SK-MEL-2 and in the assay on PC-3 was > 100 µM (inactive) each time. Also, the GI50 with MOLT-4 is > 100 µM (inactive); in the assay on SK-OV-3 it was > 100 µM (inactive); in the assay with A498, > 100 µM (inactive); with IGROV-1, 71.9 µM (inactive); with KM12 it was > 100 µM (inactive); in the assay on HCT-15, > 100 µM. The GI50 with A549, in the assay on HT-29, in the assay with NCI-H522, in the assay on SR, in the assay on SK-MEL-28 and with MCF7 was > 100 µM (inactive) throughout. For the same molecule, the GI50 with ACHN and in the assay with HOP-62 was > 100 µM (inactive) in each case.
Regarding `CCOC(=O)N(C)C1(c2ccccc2)CCN(CCCC(=O)c2ccc(F)cc2)CC1`, the GI50 in the assay on RXF 393 is 57.8 µM (inactive); in the assay with SN12C, 83.4 µM (inactive); with SF-295, 42.4 µM (inactive); in the assay with OVCAR-8, > 100 µM (inactive); with SK-MEL-2 it was 21.5 µM (inactive); in the assay with PC-3 it was 36.8 µM (inactive). Further, the GI50 in the assay on MOLT-4 is 31.8 µM (inactive); in the assay with SK-OV-3, > 100 µM (inactive); in the assay on A498, 36.5 µM (inactive); in the assay with IGROV-1, > 100 µM (inactive); in the assay with KM12, 30.5 µM (inactive); in the assay on HCT-15 it was 35.1 µM. The GI50 with A549 was 92.3 µM (inactive); with HT-29, 19.7 µM (inactive); with NCI-H522, 87.9 µM (inactive); with SR, 19.8 µM (inactive); in the assay with SK-MEL-28, 21 µM (inactive); in the assay with MCF7 it was 33.4 µM (inactive). The results for the GI50 with ACHN and with HOP-62 were 84.1 µM (inactive) and 38.5 µM (inactive), respectively.

The record behind these values is ChEMBL document CHEMBL1201862, “PubChem BioAssay data set” (2004).
